# Like-named read-outs stand apart in the source and are kept apart here.
# Assays:
# [1] = system: adjuvant-induced arthritis in rats; test: Established Adjuvant-Induced Arthritis in Rats; assay type: in vivo, Lewis (Wistar) male rats; conditions: for ED50: 504 h, read-out: Adjuvant Arthritis ED50
# [2] = system: phenylquinone-induced writhing in mice; test: Phenylquinone Writhing Test; assay type: in vivo, female white mice; conditions: mouse; oral; effective analgesic dose for 50% of the mice; observed 10 minutes from 30 minutes after dosing
# Protocol: Phenylquinone Writhing Test
# The phenylquinone writhing test, modified from Siegmund, et al., Proc. Soc. […] A test compound suspended in 1% methylcellulose was given orally to fasted (17-21 hours) female white mice, 5-20 animals per double blind test. Aqueous (0.01% phenyl-p-benzoquinone) phenylquinone was injected intraperitoneally at 24 minutes later using 0.20 ml per mouse.
# [3] = 168 h, rat, oral once daily for 7 days, read-out: percent reduction in paw volume at the indicated dose
# [4] = rat, oral gavage once daily for 7 days (days 14-20), ED50% for decrease from control paw volume, estimated by inspection, day 21
SMILES,ED50 [2] [mg/kg],"ED50 [1, 4] [mg/kg]",also measured
"Cn1c(C(OC(=O)c2ccccc2)(C(F)(F)F)C(F)(F)F)cc(-c2ccc(F)cc2)c1-c1ccc(F)cc1 [Example 35, 4,5-Bis(4-fluorophenyl)-1-methyl-α,α-bis(trifluoromethyl)-1H-pyrrole-2-methanol, Benzoate]",> 108,,"inhibition in vivo at 27 mg/kg [1, 3]: 22%"
OC(c1cc(-c2ccc(F)cc2)c(-c2ccc(Br)cc2)[nH]1)(C(F)(F)F)C(F)(F)F [Example 5],> 135,6,
OC1(c2cc(-c3ccc(F)cc3)c(-c3ccc(F)cc3)[nH]2)C(F)(F)C(F)(F)C1(F)Br (centres unmarked) [Example 21],> 108,20,
OC(c1cc(-c2ccc(F)cc2)c(-c2ccc(F)cc2)[nH]1)(C(F)(F)F)C(F)(F)Cl (centres unmarked) [Example 19],> 108,2,
OC(c1cc(-c2ccccc2)c(-c2cccnc2)[nH]1)(C(F)(F)F)C(F)(F)F [Example 7],78,,"inhibition in vivo at 18 mg/kg ([1]; 168 h, rat, oral once daily for 7 days, dose 18 mg/kg, read-out: percent reduction in paw volume at the indicated dose): 31%"
"OC(c1cc(-c2ccc(F)cc2)c(-c2ccc(F)cc2)[nH]1)(C(F)(F)F)C(F)(F)F [Example 3, 4,5-bis(4-fluorophenyl)-α,α-bis(trifluoromethyl)-1H-pyrrole-2-methanol]",> 108,3.5,
OC(c1cc(-c2ccc(F)cc2)c(-c2ccc(F)cc2)[nH]1)(C(F)(F)Cl)C(F)(Cl)Cl (centres unmarked) [Example 22],> 108,,"ED50 ([1]; Rattus norvegicus, po): 7 mg/kg"
"Cn1c(C(O)(C(F)(F)F)C(F)(F)F)cc(-c2ccc(F)cc2)c1-c1ccc(F)cc1 [Example 28, 4,5-Bis(4-fluorophenyl)-1-methyl-α,α-bis(trifluoromethyl)-1H-pyrrole-2-methanol]",45,0.66,
"CC(=O)OC(c1cc(-c2ccc(F)cc2)c(-c2ccc(F)cc2)n1C)(C(F)(F)F)C(F)(F)F [Example 34, 4,5-Bis(4-fluorophenyl)-1-methyl-α,α-bis(trifluoromethyl)-1H-pyrrole-2-methanol, Acetate]",> 108,2.5,
CSc1ccc(-c2[nH]c(C(O)(C(F)(F)F)C(F)(F)F)cc2-c2ccc(F)cc2)cc1 [Example 12],> 108,9,
OC(c1cc(-c2ccc(F)cc2)c(-c2ccc(F)cc2)[nH]1)C(F)(F)C(F)(F)C(F)(F)F (centres unmarked) [Example 49],> 108,,"ED50 ([1]; Rattus norvegicus, po): 7 mg/kg"
OC(c1cc(-c2ccccc2)c(-c2ccccc2)[nH]1)(C(F)(F)F)C(F)(F)F [Example 2],135,,"inhibition in vivo at 81 mg/kg ([1]; 168 h, rat, oral once daily for 7 days, dose 81 mg/kg, read-out: percent reduction in paw volume at the indicated dose): 42%"
Cc1c(C(O)(C(F)(F)F)C(F)(F)F)[nH]c(-c2ccc(F)cc2)c1-c1ccc(F)cc1 [Example 6],> 135,2.8,
"COc1ccc(-c2cc(C(O)C(F)(F)F)[nH]c2-c2ccc(OC)cc2)cc1 (stereo not drawn) [Example 30, 4,5-Bis(4-methoxyphenyl)-α-(trifluoromethyl)-1H-pyrrole-2-methanol]",13.4,5.5,
"COC(c1cc(-c2ccc(F)cc2)c(-c2ccc(F)cc2)n1C)(C(F)(F)F)C(F)(F)F [Example 32, 2,3-Bis(4-fluorophenyl)-1-methyl-5-[2,2,2-trifluoro-1-methoxy-1-(trifluoromethyl)ethyl]-1H-pyrrole]",> 108,5.5,
OC(c1cc(-c2ccc(F)cc2)c(-c2ccc(F)cc2)[nH]1)(C(F)F)C(F)(F)F (centres unmarked) [Example 18],> 108,4,
OC(c1cc(-c2ccc(F)cc2)c(-c2ccc(F)cc2)[nH]1)C(F)(F)C(F)(F)F (centres unmarked) [Example 37],103,2.9,

SMILES,ED50 [2] [mg/kg],"ED50 [1, 4] [mg/kg]",also measured
Cc1ccc(-c2cc(C(O)(C(F)(F)F)C(F)(F)F)[nH]c2-c2ccc(C)cc2)cc1 [Example 9],> 108,8,
OC(c1cc(-c2ccccc2)c(-c2ccc(Cl)c(Cl)c2)[nH]1)(C(F)(F)F)C(F)(F)F [Example 4],> 108,70,
"OC(c1cc(-c2ccc(F)cc2)c(-c2ccc(F)cc2)[nH]1)C(F)(F)F (stereo not drawn) [Example 29, 4,5-Bis(4-fluorophenyl)-α-(trifluoromethyl)-1H-pyrrole-2-methanol]",> 108,11,
COc1ccc(-c2cc(C(O)(C(F)(F)F)C(F)(F)F)[nH]c2-c2ccc(OC)cc2)cc1 [Example 8],5.2,4,
"COc1ccc(-c2cc(C(C)(O)C(F)(F)F)[nH]c2-c2ccc(OC)cc2)cc1 (stereo not drawn) [Example 31, 4,5-Bis(4-methoxyphenyl)-α-methyl-α-(trifluoromethyl)-1H-pyrrole-2-methanol]",23,1.25,
CC(O)(c1cc(-c2ccc(F)cc2)c(-c2ccc(F)cc2)[nH]1)C(F)(F)F (centres unmarked) [Example 50],> 108,,"inhibition in vivo at 9 mg/kg ([1]; 168 h, rat, oral once daily for 7 days, dose 9 mg/kg, read-out: percent reduction in paw volume at the indicated dose): 47%"
"COC(=O)OC(c1cc(-c2ccc(F)cc2)c(-c2ccc(F)cc2)n1C)(C(F)(F)F)C(F)(F)F [Example 36, 4,5-Bis(4-fluorophenyl)-1-methyl-α,α-bis(trifluoromethyl)-1H-pyrrole-2-methanol, Methylcarbonate]",> 108,,"inhibition in vivo at 25 mg/kg [1, 3]: 46%"
CS(=O)(=O)c1ccc(-c2[nH]c(C(O)(C(F)(F)F)C(F)(F)F)cc2-c2ccc(F)cc2)cc1 [Example 13],> 108,,"inhibition in vivo at 27 mg/kg [1, 3]: 22%"
OC(c1cc(-c2ccc(F)cc2)c(-c2ccc(F)cc2)[nH]1)(C(F)(F)Cl)C(F)(F)Cl [Example 17],> 108,6.5,
"CN(C)c1ccc(-c2[nH]c(C(O)(C(F)(F)F)C(F)(F)F)cc2-c2ccc(F)cc2)cc1 [Example 10, 4-(4-fluorophenyl)-5-(4-dimethylaminophenyl)-α,α-bis(trifluoromethyl)-1H-pyrrole-2-methanol]",> 108,2.2,
"Fc1ccc(-c2cc(C(OCc3ccccc3)(C(F)(F)F)C(F)(F)F)[nH]c2-c2ccc(F)cc2)cc1 [Example 33, 2,3-Bis(4-fluorophenyl)-5-[2,2,2-trifluoro-1-(phenylmethoxy)-1-(trifluoromethyl)ethyl]-1H-pyrrole]",,,"inhibition in vivo at 25 mg/kg [1, 3]: 35%"
"OC(c1cc(-c2ccc(Cl)cc2)c(-c2ccc(Cl)cc2)[nH]1)(C(F)(F)F)C(F)(F)F [Example 1, 4,5-Bis(4-chlorophenyl)-α,α-bis(trifluoromethyl)-1H-pyrrole-2-methanol]",> 108,,"ED50 ([1]; Rattus norvegicus, po): 7 mg/kg"
OC1(c2cc(-c3ccc(F)cc3)c(-c3ccc(F)cc3)[nH]2)C(F)(F)C(F)(F)C1(F)Cl (centres unmarked) [Example 20],> 108,4.5,
OC1(c2cc(-c3ccc(F)cc3)c(-c3ccc(F)cc3)[nH]2)C(F)(F)C(F)(F)C1(F)F [Example 16],> 108,,"ED50 ([1]; Rattus norvegicus, po): 1.3 mg/kg"
OC(c1cc(-c2ccc(F)cc2)c(-c2cccnc2)[nH]1)(C(F)(F)F)C(F)(F)F [Example 11],> 108,,"inhibition in vivo at 15 mg/kg ([1]; 168 h, rat, oral once daily for 7 days, dose 15 mg/kg, read-out: percent reduction in paw volume at the indicated dose): 47%"
CC(O)(c1cc(-c2ccc(F)cc2)c(-c2ccc(F)cc2)[nH]1)C(F)(F)C(F)(F)F (centres unmarked) [Example 38],> 108,3.1,
